Where a name gives a salt, the structure may show the parent alone. Read-outs that look alike come from different tables or passages of the source.
How the values were obtained:
Actinomyces israellii = assay: agar-dilution MIC vs. anaerobic bacteria; assay type: cell-based; conditions: strain W855; Table 6; disodium salt, monohydrate
Experimental: (§1) The agar-dilution procedure described by the International Collaborative Study (ICS) group was used to determine MIC values.
The MIC was determined by the agar-dilution method.

Clostridium perfringens = assay: microbe, parasite or virus in culture; assay type: cell-based; conditions: strain 81; Table 6; disodium salt, monohydrate
Eubacterium aerofaciens = assay: agar-dilution MIC vs. anaerobic bacteria; assay type: cell-based; conditions: strain 1235; Table 6; disodium salt, monohydrate
[1] = system: Peptococcus asaccharolyticus; assay: agar-dilution MIC vs. anaerobic bacteria; assay type: cell-based; conditions: strain 1302; Table 6; disodium salt, monohydrate
Propionibacterium acnes = assay: agar-dilution MIC vs. anaerobic bacteria; assay type: cell-based; conditions: strain 79; Table 6; disodium salt, monohydrate
Bacteroides fragilis [2] = assay: agar-dilution MIC vs. anaerobic bacteria; assay type: cell-based; conditions: Table 6, disodium salt, monohydrate
[3] = system: Bacteroides melanogenicus; assay: agar-dilution MIC vs. anaerobic bacteria; assay type: cell-based; conditions: Table 6, disodium salt, monohydrate
Bacteroides vulgatis = assay: agar-dilution MIC vs. anaerobic bacteria; assay type: cell-based; conditions: strain 1211; Table 6; disodium salt, monohydrate
Fusobacterium symbiosum = assay: agar-dilution MIC vs. anaerobic bacteria; assay type: cell-based; conditions: strain 1470; Table 6; disodium salt, monohydrate
[4] = system: Fusobacterium necrophorum; assay: agar-dilution MIC vs. anaerobic bacteria; assay type: cell-based; conditions: strain 6054A; Table 6; disodium salt, monohydrate
B. corrodens = assay: agar-dilution MIC vs. Bacteroides species; assay type: cell-based; conditions: B. corrodens 1874; 24 hours; Table 8; disodium salt, monohydrate
Experimental: as §1
(§2) The MIC values were determined by the agar-dilution method, the endpoints being read 24 hours after incubation, and are recorded in Table 8, which follows.

B. thetaiotaomicron = assay: agar-dilution MIC vs. Bacteroides species; assay type: cell-based; conditions: 24 hours, Table 8, disodium salt, monohydrate
Experimental: as §1, §2

B. vulgatis = assay: agar-dilution MIC vs. Bacteroides species; assay type: cell-based; conditions: B. vulgatis 1563; 24 hours; Table 8; disodium salt, monohydrate
Experimental: as §1, §2

Bacteroides fragilis [5] = assay: agar-dilution MIC vs. Bacteroides species; assay type: cell-based; conditions: 24 hours, Table 8, disodium salt, monohydrate
Experimental: as §1, §2

[6] = system: Peptococcus asaccharolyticus; assay: agar-dilution MIC vs. Peptococcus and Peptostreptococcus species; assay type: cell-based; conditions: Table 9, disodium salt, monohydrate
Experimental: as §1
(§3) The MIC values were determined by the agar-dilution method, and are recorded in Table 9, which follows.

Peptococcus constellatus = assay: as above; assay type: cell-based; conditions: Pc. constellatus 1468; Table 9; disodium salt, monohydrate
Experimental: as §1, §3

Peptococcus magnus = assay: as above; assay type: cell-based; conditions: Table 9, disodium salt, monohydrate
Experimental: as §1, §3

Peptococcus prevoti = assay: as above; assay type: cell-based; conditions: Table 9, disodium salt, monohydrate
Experimental: as §1, §3

[7] = system: Peptostreptococcus anaerobius; assay: as above; assay type: cell-based; conditions: Table 9, disodium salt, monohydrate
Experimental: as §1, §3

[8] = system: Peptostreptococcus intermedius; assay: as above; assay type: cell-based; conditions: Table 9, disodium salt, monohydrate
Experimental: as §1, §3

Trichomonas vaginalis = assay: broth dilution assay, antitrichomonal activity; assay type: cell-based; conditions: Trichomonas vaginalis; broth dilution assay; read-out: Minimal Inhibitory Concentration
hygroscopicity = assay type: physicochemical; conditions: monohydrate, brown powder
Staphylococcus aureus = assay: disc-plate screening procedure, zone of inhibition
Streptococcus pyogenes = assay: disc-plate screening procedure, zone of inhibition; conditions: read-out: Zone Diameter
[9] = system: Streptococcus sp. (Group D); assay: disc-plate screening procedure, zone of inhibition; conditions: read-out: Zone Diameter
Streptococcus pneumoniae = assay: disc-plate screening procedure, zone of inhibition; conditions: read-out: Zone Diameter

Cc1cccc(O)c1C(=O)OC(C)c1cccc2nc3c(C(=O)O)cccc3nc12 (stereo not shown) [A-32256 disodium salt, 6-[1-[(2-hydroxy-6-methylbenzoyl)oxy]ethyl]-1-phenazinecarboxylic acid, disodium salt, monohydrate]
MIC (Actinomyces israellii): ≤ 0.5 mg/L | MIC (Clostridium perfringens): 1.0 mg/L | MIC (Eubacterium aerofaciens): ≤ 0.5 mg/L | MIC [1]: ≤ 0.5 mg/L | MIC (Propionibacterium acnes): ≤ 0.5 mg/L | MIC (Bacteroides fragilis [2]; strain 111): ≤ 0.5 mg/L | MIC (Bacteroides fragilis [2]; strain 1877): ≤ 0.5 mg/L | MIC (Bacteroides fragilis [2]; strain 1936B): ≤ 0.5 mg/L | MIC ([3]; strain 1856/28): 32 mg/L | MIC ([3]; strain 2736): ≤ 0.5 mg/L | MIC (Bacteroides vulgatis): ≤ 0.5 mg/L | MIC (Fusobacterium symbiosum): ≤ 0.5 mg/L | MIC [4]: 1.0 mg/L | MIC (B. corrodens): ≤ 0.015 mg/L | MIC (B. thetaiotaomicron; B. thetaiotaomicron 1438): 0.03 mg/L | MIC (B. thetaiotaomicron; B. thetaiotaomicron 1900A): 0.03 mg/L | MIC (B. vulgatis): 0.03 mg/L | MIC (Bacteroides fragilis [5]; B. fragilis 2): ≤ 0.015 mg/L | MIC (Bacteroides fragilis [5]; B. fragilis 9): ≤ 0.015 mg/L | MIC (Bacteroides fragilis [5]; B. fragilis 62): ≤ 0.015 mg/L | MIC (Bacteroides fragilis [5]; B. fragilis 103): ≤ 0.015 mg/L | MIC (Bacteroides fragilis [5]; B. fragilis 104): ≤ 0.015 mg/L | MIC (Bacteroides fragilis [5]; B. fragilis 106): ≤ 0.015 mg/L | MIC (Bacteroides fragilis [5]; B. fragilis 107): 0.03 mg/L | MIC (Bacteroides fragilis [5]; B. fragilis 108): ≤ 0.015 mg/L | MIC (Bacteroides fragilis [5]; B. fragilis 110): ≤ 0.015 mg/L | MIC (Bacteroides fragilis [5]; B. fragilis 111): 0.03 mg/L | MIC (Bacteroides fragilis [5]; B. fragilis 112): ≤ 0.015 mg/L | MIC (Bacteroides fragilis [5]; B. fragilis 113): ≤ 0.015 mg/L | MIC (Bacteroides fragilis [5]; B. fragilis 1470): ≤ 0.015 mg/L | MIC (Bacteroides fragilis [5]; B. fragilis 1877): ≤ 0.015 mg/L | MIC (Bacteroides fragilis [5]; V. fragilis 1451 (so in the source)): 0.03 mg/L | MIC ([6]; Pc. asaccharolyticus 1302): ≤ 0.06 mg/L | MIC ([6]; Pc. asaccharolyticus 1344): ≤ 0.06 mg/L | MIC (Peptococcus constellatus): 0.5 mg/L | MIC (Peptococcus magnus; Pc. magnus 1401): 0.125 mg/L | MIC (Peptococcus magnus; Pc. magnus 1421): 0.125 mg/L | MIC (Peptococcus magnus; Pc. magnus 1477): 0.125 mg/L | MIC (Peptococcus prevoti; Pc. prevoti 1281): 0.125 mg/L | MIC (Peptococcus prevoti; Pc. prevoti 1293): 0.125 mg/L | MIC (Peptococcus prevoti; Pc. prevoti 1407): 0.5 mg/L | MIC ([7]; Ps. anaerobius 8): 0.25 mg/L | MIC ([7]; Ps. anaerobius 52): 0.5 mg/L | MIC ([7]; Ps. anaerobius 59): ≤ 0.06 mg/L | MIC ([7]; Ps. anaerobius 1418): ≤ 0.06 mg/L | MIC ([7]; Ps. anaerobius 1428): 0.25 mg/L | MIC ([7]; Ps. anaerobius 1451): ≤ 0.06 mg/L | MIC ([7]; Ps. anaerobius 1477): 0.125 mg/L | MIC ([8]; Ps. intermedius 1264): ≤ 0.06 mg/L | MIC ([8]; Ps. intermedius 1624): ≤ 0.06 mg/L | MIC (Trichomonas vaginalis): < 0.975 mg/L | hygroscopicity (hygroscopicity): hygroscopic | zone of inhibition at 10 µg/disc (Staphylococcus aureus; read-out: Zone Diameter, S. aureus 3055, benzylpenicillin-susceptible, 10 mcg/disc): 17.8 mm | zone of inhibition at 100 µg/disc (Staphylococcus aureus; read-out: Zone Diameter, S. aureus 3055, benzylpenicillin-susceptible, 100 mcg/disc): 25.2 mm | zone of inhibition at 10 µg/disc (Staphylococcus aureus; read-out: Zone Diameter, S. aureus 3074, benzylpenicillin-resistant, 10 mcg/disc): 16.2 mm | zone of inhibition at 100 µg/disc (Staphylococcus aureus; read-out: Zone Diameter, S. aureus 3074, benzylpenicillin-resistant, 100 mcg/disc): 23.3 mm | zone of inhibition at 10 µg/disc (Staphylococcus aureus; read-out: Zone Diameter, S. aureus 3130, methicillin-resistant, 10 mcg/disc): 19.8 mm | zone of inhibition at 100 µg/disc (Staphylococcus aureus; read-out: Zone Diameter, S. aureus 3130, methicillin-resistant, 100 mcg/disc): 26.8 mm | zone of inhibition at 10 µg/disc (Streptococcus pyogenes): 17 mm | zone of inhibition at 100 µg/disc (Streptococcus pyogenes): 21 mm | zone of inhibition at 10 µg/disc [9]: 15.6 mm | zone of inhibition at 100 µg/disc [9]: 20.4 mm | zone of inhibition at 10 µg/disc (Streptococcus pneumoniae): 25 mm | zone of inhibition at 100 µg/disc (Streptococcus pneumoniae): 31 mm

Reference: US4400510A, “A-32256 Phenazine antibiotic” (Eli Lilly and Company, priority 1981, dated 1983)
